Reference: article PMC10263210, “Design, Synthesis and Biological Evaluation of Novel MDH Inhibitors Targeting Tumor Microenvironment” (Pharmaceuticals, 2023)

What was measured:
human recombinant MDH1 = target: T1, human recombinant MDH1 (Homo sapiens, UniProt P40925); assay: MDH1 enzyme activity assay (oxaloacetate-dependent NADH oxidation); type: biochemical; conditions: means of three experiments
T1 construct: purchased BioVision
T1 sequence (P40925 1-334): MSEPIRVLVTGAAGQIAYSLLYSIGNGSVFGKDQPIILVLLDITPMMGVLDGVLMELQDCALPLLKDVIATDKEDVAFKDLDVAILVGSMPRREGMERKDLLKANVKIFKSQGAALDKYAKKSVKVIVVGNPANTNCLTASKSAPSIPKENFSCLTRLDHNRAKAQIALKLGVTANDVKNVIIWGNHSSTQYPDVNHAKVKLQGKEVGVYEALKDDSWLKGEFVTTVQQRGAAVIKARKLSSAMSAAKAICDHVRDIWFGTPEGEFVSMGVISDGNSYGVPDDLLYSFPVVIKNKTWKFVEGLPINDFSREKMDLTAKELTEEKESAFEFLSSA
Excerpt: To develop the dual inhibitors of MDH1 and MDH2, we screened the newly synthesized LW1497 derivatives using MDH and MDH2 enzyme assays. LW1497 was used as the positive control for the MDH1/2 dual inhibitor. We evaluated the ability of the synthesized compounds to inhibit human recombinant MDH1 and MDH2 enzymatic activity using an oxaloacetate-dependent NADH oxidation assay (Table 1, Table 2, Table 3, Table 4, Table 5 and Table 6). Our SAR optimization strategy focused on four different parts of LW1497: (A) the introduction of various groups at different positions on the amide phenyl ring; (B) the replacement of the 3-(4-(2,4,4-trimethylpentan-2-yl) alkyl chain; (C) the alteration of the amide portion; and (D) the modification of the oxypropanamide linker portion (Figure 1).
The activities of MDH1 and MDH2 were confirmed using an oxaloacetate-dependent NADH oxidation assay. Experiments were conducted using 100 mM of potassium phosphate buffer (pH 7.4) and human recombinant MDH1 (BioVision) and MDH2 (BioVision), and the results were obtained by measuring the absorbance at 340 nm. Enzyme activity was measured using a plate reader at a wavelength of 340 nm.

H460 lung cancer cells = assay: Cell growth inhibition assay (SRB), H460; type: cell-based; conditions: Homo sapiens, NCI-H460, means of three experiments, read-out: Cell Viability IC50 H460
Protocol: At the same time, we investigated the effect of the compounds on the growth inhibition of A549 and H460 lung cancer cells bearing KRAS and LKB1 mutations. […] Compound 50 containing a piperidine linker was selected for further analysis.
Human lung carcinoma A549 cells were cultured in Dulbecco’s modified Eagle’s medium and H460 cells were cultured in RPMI 1640 medium containing 10% fetal bovine serum and 1% penicillin/streptomycin at 37 °C with a 5% Co2 hypoxia experimental condition. The cells were grown in the hypoxia chamber (1% O2, 94% N2, and 5% Co2 in a multigas incubator)
Cell growth inhibition was assessed using sulforhodamine B (SRB) as described in [34]. The cells were fixed with 10% formalin (Sigma-Aldrich) and stained with 0.4% SRB. Protein-bound dye was dissolved in 10 mM of Tris, and its optical density was measured at 540 nm.

CD73 = CD73 ELISA; type: cell-based, human; conditions: A549 cells; for CD73 level (%): hypoxic conditions, 0 μM = 100
Protocol: It has been reported that CD73 expression is induced by HIF-1α under hypoxic conditions. Therefore, we examined whether the expression of CD73 is inhibited by compound 50 under hypoxia in A549 lung cancer cells. […] To confirm the effect of compound 50 on CD73 expression, we performed ELISA for CD73.
The prepared samples were incubated with the same amount of antibody cocktail for 1 h at room temperature and then washed three times with PT buffer. After washing, the plates were developed by adding 100 µL of TMB development solution, and the reaction was stopped by adding 100 µL of stop solution. The amount of CD73 was quantitatively measured according to the instructions on the Human CD73 Simplestep ELISA kit (Abcam, Cambridge, UK).

IC50 (human recombinant MDH1): 3.33 ± 0.18 µM
IC50 (H460 lung cancer cells): 3.67 ± 0.06 µM
SMILES: CC(C)(C)CC(C)(C)c1ccc(N2CCC(C(=O)Nc3cccc(OC(F)(F)F)c3)CC2)cc1 [Compound 50, N-(3-(Trifluoromethoxy)phenyl)-1-(4-(2,4,4-trimethylpentan-2-yl)phenyl)piperidine-4-carboxamide]
CD73 levels (CD73; ELISA): reduced CD73 levels in A549 cells in a dose-dependent manner
CD73 level (%) (CD73; 2.5 μM): 90%
CD73 level (%) (CD73; 5.0 μM): 84%
CD73 level (%) (CD73; 10 μM): 68%
